According to PubChem BioAssay (NCI):
“And” between values parts separate entries of the source, which are not always exact repeats. Equal values may be shown once.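 Where inhibition never reached the appropriate level, the endpoint shown equals the highest concentration tested. Otherwise, values were interpolated linearly from a five-concentration, 48-hour dose response in 96-well plates. At the GI50, growth is halved. TGI marks complete inhibition of growth.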

How the values were obtained:
Assay in all cases: inhibition of tumour cell growth, NCI panel, 48 h
HOP-92 NSCLC = test system: HOP-92 NSCLC
ACHN renal = test system: ACHN renal
EKVX NSCLC = test system: EKVX NSCLC
LXFL 529 NSCLC = test system: LXFL 529 NSCLC
M14 melanoma = test system: M14 melanoma
MOLT-4 leukemia = test system: MOLT-4 leukemia
OVCAR-8 ovarian = test system: OVCAR-8 ovarian
UACC-257 melanoma = test system: UACC-257 melanoma
SNB-75 CNS = test system: SNB-75 CNS
HL-60(TB) leukemia = test system: HL-60(TB) leukemia
HOP-62 NSCLC = test system: HOP-62 NSCLC
HCC-2998 colon = test system: HCC-2998 colon
CAKI-1 renal = test system: CAKI-1 renal
NCI-H522 lung = test system: NCI-H522 lung
RPMI-8226 leukemia = test system: RPMI-8226 leukemia
HT29 colon = test system: HT29 colon
SR leukemia = test system: SR leukemia
SN12C renal = test system: SN12C renal
TK-10 renal = test system: TK-10 renal
KM12 colon = test system: KM12 colon
M19-MEL melanoma = test system: M19-MEL melanoma
COLO 205 colon = test system: COLO 205 colon
SK-MEL-28 melanoma = test system: SK-MEL-28 melanoma
A549 NSCLC = test system: A549 NSCLC
OVCAR-5 ovarian = test system: OVCAR-5 ovarian
SF-539 CNS = test system: SF-539 CNS
SK-MEL-2 melanoma = test system: SK-MEL-2 melanoma
A498 renal = test system: A498 renal
U251 CNS = test system: U251 CNS
KM20L2 colon = test system: KM20L2 colon
786-0 renal = test system: 786-0 renal
DMS 114 small cell lung = test system: DMS 114 small cell lung
UACC-62 melanoma = test system: UACC-62 melanoma
HCT-116 colon = test system: HCT-116 colon
NCI-H460 lung = test system: NCI-H460 lung
XF 498 CNS = test system: XF 498 CNS
UO-31 renal = test system: UO-31 renal
MALME-3M melanoma = test system: MALME-3M melanoma
SF-295 CNS = test system: SF-295 CNS
CCRF-CEM leukemia = test system: CCRF-CEM leukemia
SK-MEL-5 melanoma = test system: SK-MEL-5 melanoma
SNB-19 CNS = test system: SNB-19 CNS
IGROV1 ovarian = test system: IGROV1 ovarian
SK-OV-3 ovarian = test system: SK-OV-3 ovarian
SNB-78 CNS = test system: SNB-78 CNS
HCT-15 colon = test system: HCT-15 colon
K-562 leukemia = test system: K-562 leukemia
SF-268 CNS = test system: SF-268 CNS
NCI-H23 lung = test system: NCI-H23 lung
RXF 393 renal = test system: RXF 393 renal
NCI-H226 lung = test system: NCI-H226 lung
SW-620 colon = test system: SW-620 colon
DLD-1 colon = test system: DLD-1 colon
LOX IMVI melanoma = test system: LOX IMVI melanoma
DMS 273 small cell lung = test system: DMS 273 small cell lung
OVCAR-3 ovarian = test system: OVCAR-3 ovarian
HOP-18 NSCLC = test system: HOP-18 NSCLC
OVCAR-4 ovarian = test system: OVCAR-4 ovarian

Which TGI (HOP-92 NSCLC) does the source give for `Nc1ccn(CC(CO)CC(c2ccccc2)P(=O)(O)O)c(=O)n1` (configuration not stated) here?
Its TGI is over 100 µM.

And the TGI (ACHN renal)?
The TGI was over 100 µM.

What about the TGI (EKVX NSCLC) of the same compound?
The TGI was over 100 µM.

And the TGI (LXFL 529 NSCLC)?
The TGI was over 100 µM.

And the TGI (M14 melanoma)?
Its TGI is over 100 µM.

What about the TGI (MOLT-4 leukemia) of the same compound?
Its TGI is over 100 µM.

What about the TGI (OVCAR-8 ovarian) of the same compound?
The TGI was over 100 µM.

What about the TGI (UACC-257 melanoma) of the same compound?
Its TGI is over 100 µM.

And the TGI (SNB-75 CNS)?
Its TGI is 28.4 µM and > 100 µM.

And the TGI (HL-60(TB) leukemia)?
The TGI was over 100 µM.

And the TGI (HOP-62 NSCLC)?
The TGI was over 100 µM.

And the TGI (HCC-2998 colon)?
Its TGI is over 100 µM.

And the TGI (CAKI-1 renal)?
Its TGI is over 100 µM.

And the TGI (NCI-H522 lung)?
Its TGI is over 100 µM.

What about the TGI (RPMI-8226 leukemia) of the same compound?
Its TGI is over 100 µM.

What about the TGI (HT29 colon) of the same compound?
The TGI was over 100 µM.

And the TGI (SR leukemia)?
Its TGI is over 100 µM.

And the TGI (SN12C renal)?
Its TGI is over 100 µM.

And the TGI (TK-10 renal)?
Its TGI is over 100 µM.

What about the TGI (KM12 colon) of the same compound?
The TGI was over 100 µM.

And the TGI (M19-MEL melanoma)?
Its TGI is over 100 µM.

What about the TGI (COLO 205 colon) of the same compound?
Its TGI is over 100 µM.

What about the TGI (SK-MEL-28 melanoma) of the same compound?
Its TGI is over 100 µM.

What about the TGI (A549 NSCLC) of the same compound?
The TGI was over 100 µM.

What about the TGI (OVCAR-5 ovarian) of the same compound?
The TGI was over 100 µM.

What about the TGI (SF-539 CNS) of the same compound?
The TGI was over 100 µM.

And the TGI (SK-MEL-2 melanoma)?
The TGI was over 100 µM.

What about the TGI (A498 renal) of the same compound?
Its TGI is over 100 µM.

What about the GI50 (U251 CNS) of the same compound?
The GI50 was 28.2 µM and > 100 µM.

What about the TGI (U251 CNS) of the same compound?
Its TGI is over 100 µM.

What about the TGI (KM20L2 colon) of the same compound?
Its TGI is over 100 µM.

What about the TGI (786-0 renal) of the same compound?
Its TGI is over 100 µM.

What about the TGI (DMS 114 small cell lung) of the same compound?
The TGI was over 100 µM.

And the TGI (UACC-62 melanoma)?
Its TGI is over 100 µM.

And the TGI (HCT-116 colon)?
The TGI was over 100 µM.

And the TGI (NCI-H460 lung)?
Its TGI is over 100 µM.

What about the TGI (XF 498 CNS) of the same compound?
The TGI was over 100 µM.

And the TGI (UO-31 renal)?
Its TGI is over 100 µM.

And the TGI (MALME-3M melanoma)?
The TGI was over 100 µM.

And the TGI (SF-295 CNS)?
Its TGI is over 100 µM.

And the TGI (CCRF-CEM leukemia)?
The TGI was over 100 µM.

And the TGI (SK-MEL-5 melanoma)?
The TGI was over 100 µM.

And the TGI (SNB-19 CNS)?
Its TGI is over 100 µM.

And the TGI (IGROV1 ovarian)?
Its TGI is over 100 µM.

And the TGI (SK-OV-3 ovarian)?
Its TGI is over 100 µM.

What about the TGI (SNB-78 CNS) of the same compound?
The TGI was over 100 µM.

And the TGI (HCT-15 colon)?
The TGI was over 100 µM.

What about the TGI (K-562 leukemia) of the same compound?
Its TGI is over 100 µM.

What about the TGI (SF-268 CNS) of the same compound?
The TGI was over 100 µM.

What about the TGI (NCI-H23 lung) of the same compound?
Its TGI is over 100 µM.

What about the TGI (RXF 393 renal) of the same compound?
The TGI was over 100 µM.

And the TGI (NCI-H226 lung)?
Its TGI is over 100 µM.

What about the TGI (SW-620 colon) of the same compound?
Its TGI is over 100 µM.

And the TGI (DLD-1 colon)?
The TGI was over 100 µM.

What about the TGI (LOX IMVI melanoma) of the same compound?
Its TGI is over 100 µM.

What about the TGI (DMS 273 small cell lung) of the same compound?
Its TGI is over 100 µM.

And the TGI (OVCAR-3 ovarian)?
The TGI was over 100 µM.

And the TGI (HOP-18 NSCLC)?
The TGI was over 100 µM.

`CCCCCCCCCCCCCC(=O)OC1C(CO)OC(=O)C1O` (configuration not stated) was tested. Which TGI (HOP-92 NSCLC) did it give?
The TGI was 95.9 µM.

What about the TGI (ACHN renal) of the same compound?
The TGI was over 100 µM.

What about the TGI (EKVX NSCLC) of the same compound?
The TGI was over 100 µM.

What about the TGI (LXFL 529 NSCLC) of the same compound?
Its TGI is over 100 µM.

What about the TGI (M14 melanoma) of the same compound?
The TGI was over 100 µM.

And the TGI (MOLT-4 leukemia)?
The TGI was over 100 µM.

And the TGI (OVCAR-8 ovarian)?
Its TGI is over 100 µM.

What about the TGI (UACC-257 melanoma) of the same compound?
The TGI was over 100 µM.

What about the TGI (SNB-75 CNS) of the same compound?
The TGI was over 100 µM.

And the TGI (HL-60(TB) leukemia)?
Its TGI is over 100 µM.

What about the TGI (HOP-62 NSCLC) of the same compound?
The TGI was over 100 µM.

What about the TGI (HCC-2998 colon) of the same compound?
Its TGI is over 100 µM.

And the TGI (CAKI-1 renal)?
Its TGI is over 100 µM.

And the TGI (RPMI-8226 leukemia)?
Its TGI is over 100 µM.

And the TGI (OVCAR-4 ovarian)?
Its TGI is over 100 µM.

What about the TGI (HT29 colon) of the same compound?
The TGI was over 100 µM.

And the TGI (SN12C renal)?
The TGI was over 100 µM.

What about the TGI (TK-10 renal) of the same compound?
Its TGI is over 100 µM.

And the TGI (KM12 colon)?
Its TGI is over 100 µM.

And the TGI (M19-MEL melanoma)?
Its TGI is over 100 µM.

And the TGI (COLO 205 colon)?
The TGI was over 100 µM.

What about the TGI (A549 NSCLC) of the same compound?
Its TGI is over 100 µM.

What about the TGI (OVCAR-5 ovarian) of the same compound?
The TGI was over 100 µM.

What about the TGI (SF-539 CNS) of the same compound?
The TGI was over 100 µM.

And the TGI (SK-MEL-2 melanoma)?
Its TGI is over 100 µM.

What about the TGI (A498 renal) of the same compound?
The TGI was over 100 µM.

And the TGI (U251 CNS)?
The TGI was over 100 µM.

And the TGI (KM20L2 colon)?
The TGI was over 100 µM.

And the TGI (786-0 renal)?
The TGI was over 100 µM.

And the TGI (DMS 114 small cell lung)?
The TGI was over 100 µM.

What about the TGI (UACC-62 melanoma) of the same compound?
The TGI was over 100 µM.

What about the TGI (HCT-116 colon) of the same compound?
Its TGI is over 100 µM.

And the TGI (NCI-H460 lung)?
Its TGI is over 100 µM.

And the TGI (XF 498 CNS)?
The TGI was over 100 µM.

And the TGI (UO-31 renal)?
Its TGI is over 100 µM.

What about the TGI (MALME-3M melanoma) of the same compound?
The TGI was over 100 µM.

What about the TGI (SF-295 CNS) of the same compound?
The TGI was over 100 µM.

And the TGI (CCRF-CEM leukemia)?
Its TGI is over 100 µM.

What about the TGI (SK-MEL-5 melanoma) of the same compound?
The TGI was over 100 µM.

What about the TGI (SNB-19 CNS) of the same compound?
Its TGI is over 100 µM.

What about the TGI (IGROV1 ovarian) of the same compound?
The TGI was over 100 µM.

What about the TGI (SK-OV-3 ovarian) of the same compound?
Its TGI is over 100 µM.

What about the TGI (SNB-78 CNS) of the same compound?
The TGI was over 100 µM.

What about the TGI (HCT-15 colon) of the same compound?
The TGI was over 100 µM.

What about the TGI (K-562 leukemia) of the same compound?
The TGI was over 100 µM.

And the TGI (SF-268 CNS)?
Its TGI is over 100 µM.

And the TGI (NCI-H23 lung)?
The TGI was over 100 µM.

And the TGI (RXF 393 renal)?
The TGI was over 100 µM.

What about the TGI (SW-620 colon) of the same compound?
Its TGI is over 100 µM.

What about the TGI (DLD-1 colon) of the same compound?
Its TGI is over 100 µM.

And the TGI (LOX IMVI melanoma)?
The TGI was over 100 µM.

What about the TGI (DMS 273 small cell lung) of the same compound?
The TGI was over 100 µM.

What about the TGI (OVCAR-3 ovarian) of the same compound?
The TGI was over 100 µM.

What about the TGI (HOP-18 NSCLC) of the same compound?
Its TGI is over 100 µM.
